According to patent US20150057266A1 (AbbVie Inc., priority 2005, published 2015):

Experiment: intrinsic solubility (aqueous medium/lower pH)
Type: physicochemical

- intrinsic solubility: 0.0423 µg/mL
Compound: Cc1cccc(Nc2ccccc2C(=O)O)c1C [mefanamic acid]
